We go through 46 compounds from patent publication US20080069849A1, “Novel Antimicrobial Peptides” (Dermagen AB, priority 2004, published 2008).

Where two headings read alike, the source gives them in different places. Where a SMILES comes first, the peptide text is derived from it. Where no end group is shown, it is not given here. [ ]: non-standard residue; d: D form.

Holding throughout (format): cell-based
In data set [1] the test system is erythrocytes. Kind of data set: Hemolysis assay (Example 11). Further details: % Hemolysis Mean: dose or concentration left out as unconfirmed. The protocol: EDTA-blood was centrifuged at 800 g for 10 min, whereafter plasma and buffy coat were removed. The erythrocytes were washed three times and resuspended in 5% PBS, pH 7.4. The cells were then incubated with end-over-end rotation for 1 h at 37° C. in the presence of peptides ([…]). 2% Triton X-100 (Sigma-Aldrich) served as positive control. The samples were then centrifuged at 800 g for 10 min. The absorbance of hemoglobin release was measured at λ 540 nm and is in the plot expressed as % of TritonX-100 induced hemolysis.

For data set [2], the system named is Escherichia coli 37.4. Nature of the data set: Radial diffusion assay (RDA), E. coli 37.4. The settings on record: zone of inhibition; Table 2, second generation PEPscreen. The protocol: (§1) Escherichia coli 37.4 isolate was originally obtained from a patient with a chronic venous ulcer, while Staphylococcus aureus isolate BD14312 was from a patient with atopic dermatitis. Staphylococcus aureus ATCC29213 and Candida albicans ATCC90028 were both obtained from the Clinical Bacteriology Department at Lund University hospital.
(§2) Essentially as described earlier (Lehrer et al., J Immunol Methods 137, 167-173, 1991, Andersson et al., Eur J Biochem 271, 1219-1226, 2004) bacteria were grown to mid-logarithmic phase in 10 ml of full-strength (3% w/v) trypticase soy broth (TSB) (Becton-Dickinson, Cockeysville, Md.). The microorganisms were then washed once with 10 mM Tris, pH 7.4.4×10^6 bacterial colony forming units were added to 15 ml of the underlay agarose gel, consisting of 0.03% (w/v) TSB, 1% (w/v) low electroendosmosis type (EEO) agarose (Sigma, St Louis Mo.) and 0.02% (v/v) Tween 20 (Sigma). The underlay was poured into a ø 144 mm petri dish. After agarose solidification, 4 mm-diameter wells were punched and 6 μl of test sample was added to each well. Plates were incubated at 37° C. for 3 hours to allow diffusion of the peptides. The underlay gel was then covered with 15 ml of molten overlay (6% TSB and 1% Low-EEO agarose in dH2O). Antimicrobial activity of a peptide is visualized as a zone of clearing around each well after 18-24 hours of incubation at 37° C.

Data set [3] concerns Staphylococcus aureus ATCC29213. Kind of data set: Radial diffusion assay (RDA), S. aureus ATCC29213. The note with it: zone of inhibition; Table 2, second generation PEPscreen. The protocol:
as §1, §2

For the compound `CC[C@@H](C)[C@@H](NC(=O)[C@@H](Cc1ccc(O)cc1)NC(=O)[C@@H](CC(N)=O)NC(=O)[C@H](N)CS)C(=O)N[C@@H](C(=O)N[C@H](CCC(=O)O)C(=O)N[C@H](CC(C)C)C(=O)N[C@H](CCCNC(=N)N)C(=O)N[C@H](CCCNC(=N)N)C(=O)N[C@H](CCC(N)=O)C(=O)N[C@H](Cc1c[nH]cn1)C(=O)N[C@H](C)C(=O)N[C@H](CCCNC(=N)N)C(=O)N[C@H](C)C(=O)N[C@H](CO)C(=O)N[C@H](Cc1c[nH]cn1)C(=O)N[C@H](CC(C)C)C(=O)NCC(=O)N[C@H](CC(C)C)C(=O)N[C@H](C)C(=O)O)[C@H](C)O` [Peptide 182] (H-[dC][dN][dY][dI][dT][dE][dL][dR][dR][dQ][dH][dA][dR][dA][dS][dH][dL]G[dL][dA]-OH; N-terminus and C-terminus assumed), in data set [1] (1 h), the “% Hemolysis Mean” value is 2.659%.

Take `CC[C@@H](C)[C@@H](NC(=O)[C@@H](Cc1ccc(O)cc1)NC(=O)[C@@H](CC(N)=O)NC(=O)[C@H](N)CS)C(=O)N[C@@H](C(=O)N[C@H](CCC(=O)O)C(=O)N[C@H](CC(C)C)C(=O)N[C@H](CC(C)C)C(=O)N[C@H](CCCNC(=N)N)C(=O)N[C@H](CCC(N)=O)C(=O)N[C@H](CC(C)C)C(=O)N[C@H](C)C(=O)N[C@H](CCCNC(=N)N)C(=O)N[C@H](C)C(=O)N[C@H](CO)C(=O)N[C@H](CCCCN)C(=O)N[C@H](CCCCN)C(=O)NCC(=O)N[C@H](CC(C)C)C(=O)N[C@H](C)C(=O)O)[C@H](C)O` [Peptide 183] (H-[dC][dN][dY][dI][dT][dE][dL][dL][dR][dQ][dL][dA][dR][dA][dS][dK][dK]G[dL][dA]-OH; N-terminus and C-terminus assumed): the “% Hemolysis Mean” value in data set [1] (1 h) is listed as 5.128%. With `CC[C@@H](C)[C@@H](NC(=O)[C@@H](Cc1ccc(O)cc1)NC(=O)[C@@H](CC(N)=O)NC(=O)[C@H](N)CS)C(=O)N[C@H](CCC(=O)O)C(=O)N[C@H](CCC(=O)O)C(=O)N[C@H](CC(C)C)C(=O)N[C@H](CCCNC(=N)N)C(=O)N[C@H](CCCNC(=N)N)C(=O)N[C@H](CCC(N)=O)C(=O)N[C@H](CC(C)C)C(=O)N[C@H](C)C(=O)N[C@H](CCCNC(=N)N)C(=O)N[C@H](C)C(=O)N[C@H](CC(C)C)C(=O)N[C@H](Cc1c[nH]cn1)C(=O)N[C@H](CCCCN)C(=O)NCC(=O)N[C@H](CC(C)C)C(=O)N[C@H](C)C(=O)O` [Peptide 184] (H-[dC][dN][dY][dI][dE][dE][dL][dR][dR][dQ][dL][dA][dR][dA][dL][dH][dK]G[dL][dA]-OH; N-terminus and C-terminus assumed), the “% Hemolysis Mean” value in data set [1] (1 h) is on record as 3.235%. Turning to “Ac-CNYIEELRRQLARALHKGLA-NH2 [Peptide 181]”, in data set [1] (1 h), the “% Hemolysis Mean” value is 4.861%. Besides, the “RDA (mm) E. coli 37.4 Mean” value in data set [2] came out at 4.330 mm. The “RDA (mm) S. aureus ATCC29213 Mean” value in data set [3] worked out at 4.24 mm. In the same order, the values of “Ac-CNYITELLRQLARASKKGLA-NH2 [Peptide 180]” are 5.447%, 5.933 mm and 0 mm. As to “Ac-CNYITELRRQHARASHLGLA-NH2 [Peptide 179]”, in data set [1] (1 h), the “% Hemolysis Mean” value was found to be 2.495%. The “RDA (mm) E. coli 37.4 Mean” value in data set [2] worked out at 2.677 mm. In data set [3], the “RDA (mm) S. aureus ATCC29213 Mean” value is 4.03 mm. Take CKYITLLRRQLLRALKRGLR [Peptide 73]: the “hemolytic activity” value in data set [1] is given as “low hemolytic activity”. Regarding CNYIEELKRQLARALHKGLA [Peptide 145], the “% Hemolysis Mean” value in data set [1] (1 h) was found to be 2.495%.

As for CNYIEELKRQLARALKKGLA [Peptide 146], in data set [1] (1 h), the “% Hemolysis Mean” value is on record as 2.521%.

On to CNYIEELLRQKARALHKGLA [Peptide 162], for which the “% Hemolysis Mean” value in data set [1] (1 h) is recorded as 2.056%. On to CNYIEELLRQKARALKKGLA [Peptide 164], for which the “% Hemolysis Mean” value in data set [1] (1 h) is on record as 2.340%. Consider CNYIEELLRQLAPASHKGLA [Peptide 148], for which, in data set [1], the “% Hemolysis Mean” value was found to be 1.454%. Besides, in data set [2], the “RDA (mm) E. coli 37.4 Mean” value was found to be 2.900 mm. Besides, the “RDA (mm) S. aureus ATCC29213 Mean” value in data set [3] amounted to 0.99 mm. In the case of CNYIEELLRQLARARHKGLA [Peptide 157], the “% Hemolysis Mean” value in data set [1] (1 h) was determined as 1.282%.

For the compound CNYIEELLRQLARARKKGLA [Peptide 159], in data set [1] (1 h), the “% Hemolysis Mean” value was 1.841%. Regarding CNYIEELLRQLARASKKGLA [Peptide 149], the “% Hemolysis Mean” value in data set [1] (1 h) was 1.506%. Take CNYIEELLRQLARATHKGLA [Peptide 151]: the “% Hemolysis Mean” value in data set [1] (1 h) came out at 1.626%. As to CNYIEELLRQLARATKKGLA [Peptide 153], in data set [1] (1 h), the “% Hemolysis Mean” value is 1.755%. For CNYIEELLRQRARALHKGLA [Peptide 166], the “% Hemolysis Mean” value in data set [1] (1 h) turned out to be 2.117%. CNYIEELLRQRARALKKGLA [Peptide 168]: the “% Hemolysis Mean” value in data set [1] (1 h) amounted to 2.573%. As for CNYIEELRRQLARALHKGLA [Peptide 47], the “hemolytic activity” value in data set [1] was “low hemolytic activity”. Besides, the “% Hemolysis Mean” value in data set [1] (1 h) turned out to be 2.323%. With CNYIEELRRQLARALHKWLA [Peptide 173], in data set [1] (1 h), the “% Hemolysis Mean” value came out at 8.148%. CNYIEELRRQLARALKKGLA [Peptide 142]: the “% Hemolysis Mean” value in data set [1] (1 h) turned out to be 3.734%. Still for that read-out and setting: then CNYIEELRRQLARAWHKGLA [Peptide 174], with 2.056%; and CNYIEELRRQWARALHKGLA [Peptide 175], with 1.824%.

Take CNYIEELWRQLARALHKGLA [Peptide 176]: in data set [1] (1 h), the “% Hemolysis Mean” value worked out at 2.771%. CNYIKELLRQKLRASHLGLA [Peptide 171]: the “% Hemolysis Mean” value in data set [1] (1 h) amounted to 2.383%. Still for that read-out and setting: in the case of CNYITELKRQLARALHKGLA [Peptide 143] it was 3.450%. Turning to CNYITELKRQLARALKKGLA [Peptide 144], the “% Hemolysis Mean” value in data set [1] (1 h) was found to be 3.597%. Same read-out and setting: then CNYITELLRQKARALHKGLA [Peptide 161], with 1.902%; and CNYITELLRQKARALKKGLA [Peptide 163], with 2.478%; and CNYITELLRQLARAKKKGLA [Peptide 160], with 2.512%.

CNYITELLRQLARANKKGLA [Peptide 154]: the “% Hemolysis Mean” value in data set [1] (1 h) is 2.564%. Take CNYITELLRQLARAQKKGLA [Peptide 155]: the “% Hemolysis Mean” value in data set [1] (1 h) was 5.817%.

Regarding CNYITELLRQLARARHKGLA [Peptide 156], the “% Hemolysis Mean” value in data set [1] (1 h) is on record as 3.321%. As for CNYITELLRQLARARKKGLA [Peptide 158], the “% Hemolysis Mean” value in data set [1] (1 h) is 3.829%.

In the case of CNYITELLRQLARASHKGLA [Peptide 147], in data set [1] (1 h), the “% Hemolysis Mean” value is on record as 2.555%.

For CNYITELLRQLARASKKGLA [Peptide 39], the “hemolytic activity” value in data set [1] is on record as “low hemolytic activity”. As for CNYITELLRQLARATHKGLA [Peptide 150], the “% Hemolysis Mean” value in data set [1] (1 h) came out at 3.777%. As to CNYITELLRQLARATKKGLA [Peptide 152], the “% Hemolysis Mean” value in data set [1] (1 h) worked out at 3.984%. On to CNYITELLRQRARALHKGLA [Peptide 165], for which the “% Hemolysis Mean” value in data set [1] (1 h) is reported as 2.659%.

As to CNYITELLRQRARALKKGLA [Peptide 167], in data set [1] (1 h), the “% Hemolysis Mean” value is 2.642%. Same read-out and setting: in the case of CNYITELRRQKLRLLHKGLA [Peptide 170] it was 2.211%; in that of CNYITELRRQKLRLLKKGLA [Peptide 169], 2.512%.

Regarding CNYITELRRQLARALHKGLA [Peptide 140], the “% Hemolysis Mean” value in data set [1] (1 h) is on record as 5.145%. CNYITELRRQLARALKKGLA [Peptide 141]: the “% Hemolysis Mean” value in data set [1] (1 h) was found to be 17.716%. Turning to CNYIWELRRQLARALHKGLA [Peptide 177], in data set [1] (1 h), the “% Hemolysis Mean” value is 3.175%.
